Results from ChEMBL document CHEMBL1201862, “PubChem BioAssay data set” (2004).
Several values for one entry are separate records, joined by “and”; a condition that tells them apart may be missing. Identical values can stand only once. Activity calls are given as the source filed them.

Legend:
[1] = HEp-2 cell cytotoxicity, dose response, cytotoxicity control for RSV inhibitor project, HTS (AID 2410); assay type: functional; conditions: human respiratory syncytial virus
[2] = biological target: T1, Heat shock factor protein 1 (Mus musculus, UniProt P38532); assay: inhibition of MG132-induced HSE-luciferase signal, confirmation, cell-based, NIH3T3, luminescence, dose retest (AID 2382); assay type: functional;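 also: NIH3T3 fibroblasts with HSF1-driven luciferase reporter stressed by proteasome inhibitor MG132; luminescence from HSF1-driven luciferase expression after 8 hours of MG132 stress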
T1 sequence (P38532 whole entry): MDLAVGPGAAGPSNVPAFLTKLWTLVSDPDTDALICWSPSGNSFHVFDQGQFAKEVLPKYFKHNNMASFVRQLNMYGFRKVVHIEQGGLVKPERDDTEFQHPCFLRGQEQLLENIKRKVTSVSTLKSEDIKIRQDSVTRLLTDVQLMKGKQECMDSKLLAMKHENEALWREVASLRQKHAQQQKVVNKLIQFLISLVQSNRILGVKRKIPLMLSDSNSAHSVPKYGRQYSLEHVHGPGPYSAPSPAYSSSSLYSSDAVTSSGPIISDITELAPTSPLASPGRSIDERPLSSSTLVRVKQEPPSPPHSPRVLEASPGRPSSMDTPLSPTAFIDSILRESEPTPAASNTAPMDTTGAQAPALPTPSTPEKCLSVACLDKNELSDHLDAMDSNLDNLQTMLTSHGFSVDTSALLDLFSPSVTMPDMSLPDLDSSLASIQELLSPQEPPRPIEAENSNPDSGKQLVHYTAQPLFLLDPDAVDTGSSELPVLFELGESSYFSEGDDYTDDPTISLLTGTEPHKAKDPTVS

Cytochrome P450 2D6 = Cytochrome P450 2D6 (Homo sapiens, UniProt P10635);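 also: CYP2D6 member of a cytochrome P450 panel assay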
Cytochrome P450 2C19 = Cytochrome P450 2C19 (Homo sapiens, UniProt P33261); assay: Cytochrome panel assay with activity outcomes. Panel member name: p450-cyp2c19 Compounds with AC50 equal or less than 10 uM are considered active; assay type: functional; conditions: read-out: AC50
Cytochrome P450 1A2 = biological target: T2, Cytochrome P450 1A2 (Homo sapiens, UniProt P05177);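 also: PubChem cytochrome P450 panel assay, CYP1A2 panel member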
T2 sequence (P05177 whole entry): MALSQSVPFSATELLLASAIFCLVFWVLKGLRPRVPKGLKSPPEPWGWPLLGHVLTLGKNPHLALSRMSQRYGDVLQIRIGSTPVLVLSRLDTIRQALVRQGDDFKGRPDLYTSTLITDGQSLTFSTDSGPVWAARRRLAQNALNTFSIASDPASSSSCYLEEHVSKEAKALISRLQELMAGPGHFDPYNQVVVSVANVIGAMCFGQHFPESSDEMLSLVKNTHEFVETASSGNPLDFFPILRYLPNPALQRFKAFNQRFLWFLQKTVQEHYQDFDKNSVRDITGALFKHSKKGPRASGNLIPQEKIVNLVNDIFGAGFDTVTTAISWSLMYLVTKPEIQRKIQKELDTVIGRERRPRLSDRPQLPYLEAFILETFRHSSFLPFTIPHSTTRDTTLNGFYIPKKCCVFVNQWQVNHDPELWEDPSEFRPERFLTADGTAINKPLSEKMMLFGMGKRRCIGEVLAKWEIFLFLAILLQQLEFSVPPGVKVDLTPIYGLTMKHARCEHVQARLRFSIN

Cytochrome P450 2C9 = Cytochrome P450 2C9 (Homo sapiens, UniProt P11712)
[3] = C. albicans growth with fluconazole, confirmation, fluorescence, retest (AID 2467); assay type: functional, cell-based
[4] = NIH-3T3 fibroblast cytotoxicity, dose response, cytotoxicity control, cell-based, fluorescence, Alamar Blue, secondary assay (AID 2327); assay type: functional;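 also: NIH-3T3 mouse fibroblasts cultured with fluconazole at 8 µg/mL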
INS1 = assay: beta cell apoptosis inhibitors, cytokine rescue, dose response, luminescence, retest (AID 449756); assay type: functional, cell-based; conditions: Rattus norvegicus;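 also: cell death triggered by IL-1 beta plus TNF-alpha plus IFN-gamma mixture; protective hits raise ATP signal compared with cytokine alone wells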
[5] = inhibitors of intracellular T. cruzi replication, confirmation, NIH3T3 host cells, beta-gal luminescence (AID 2044); assay type: functional, cell-based;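 also: intracellular parasites grown in NIH/3T3 mouse fibroblasts as host cells; luminescent beta-galactosidase reporter signal from transgenic T. cruzi replicating inside host cells; inhibitors lower the luminescence signal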
[6] = cytotoxicity toward NIH3T3 fibroblasts, dose response, counter-screen, cell-based, ATP luminescence, mouse fibroblasts (AID 2010); assay type: functional;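 also: cells exposed to compound for about 90 hours before reading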
[7] = biological target: T1, Heat shock factor protein 1; assay: HSF1 potentiators in luciferase reporter cells, confirmation, cell-based, NIH3T3, luminescence, dose retest (AID 435004); assay type: functional;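 also: stress induced by proteasome inhibitor MG132 added 30 min after compound; luciferase reporter driven by HSF1 response element in NIH3T3 cells; actives raise luminescence as potentiators of the MG132 stress response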
Cytochrome P450 3A4 = Cytochrome P450 3A4 (Homo sapiens, UniProt P08684);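 also: CYP3A4 tested as one member of a cytochrome P450 panel screen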
[8] = Luminescence Cell-Based Dose Confirmation HTS to Identify Activators of 5'UTR Stem-Loop Driven Alpha-Synuclein mRNA Translation in H4 Neuroglioblastoma Cells. [Related pubchem assays: 1829 (Project Summary), 1814 (Primary HTS)]; assay type: functional
H4 = assay: Luminescence Cell-Based Dose Response HTS to Identify Activators of 5'UTR Stem-Loop Driven Prion Protein mRNA Translation in H4 Neuroglioblastoma Cells. [Related pubchem assays: 1829 (Project Summary), 1814 (Primary HTS)]; assay type: functional; conditions: Homo sapiens
[9] = Luminescence Cell-Based Dose Response HTS to Identify Activators of Luciferase Translation or Activity in H4 […] Cells. [Related pubchem assays: 1829 (Project Summary), 1814 (Primary HTS)]; assay type: functional
[10] = biological target: T3, RNA-binding protein pos-1 (Caenorhabditis elegans, UniProt G5EF15); assay: inhibitors of POS-1/mex-3 RNA binding, dose response, biochemical, fluorescence polarization (AID 1964);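 also: purified POS-1 fused to maltose binding protein made in E. coli; potency of compounds blocking POS-1 binding to fluorescent RNA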
T3 sequence (G5EF15 whole entry): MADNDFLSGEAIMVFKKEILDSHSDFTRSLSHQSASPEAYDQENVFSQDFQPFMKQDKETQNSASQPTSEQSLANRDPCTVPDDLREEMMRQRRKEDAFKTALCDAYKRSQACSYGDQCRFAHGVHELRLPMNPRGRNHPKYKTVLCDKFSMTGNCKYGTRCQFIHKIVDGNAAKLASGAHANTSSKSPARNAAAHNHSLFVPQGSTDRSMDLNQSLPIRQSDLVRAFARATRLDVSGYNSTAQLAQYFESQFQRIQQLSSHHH

Sequence of Cytochrome P450 2D6 (P10635 whole entry): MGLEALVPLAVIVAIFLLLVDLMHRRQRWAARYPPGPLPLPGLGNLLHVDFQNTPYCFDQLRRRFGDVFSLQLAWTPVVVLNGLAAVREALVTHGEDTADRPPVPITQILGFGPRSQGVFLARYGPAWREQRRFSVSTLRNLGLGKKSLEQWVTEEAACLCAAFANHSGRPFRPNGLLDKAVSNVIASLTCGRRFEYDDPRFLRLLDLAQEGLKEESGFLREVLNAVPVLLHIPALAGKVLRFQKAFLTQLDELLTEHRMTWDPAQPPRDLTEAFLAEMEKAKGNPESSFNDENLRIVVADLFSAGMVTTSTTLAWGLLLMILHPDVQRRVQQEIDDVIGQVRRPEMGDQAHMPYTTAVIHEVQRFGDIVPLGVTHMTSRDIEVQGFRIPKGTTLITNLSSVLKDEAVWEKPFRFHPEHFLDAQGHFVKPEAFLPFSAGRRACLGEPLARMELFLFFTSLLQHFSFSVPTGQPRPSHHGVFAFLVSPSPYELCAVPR
Sequence of Cytochrome P450 2C19 (P33261 whole entry): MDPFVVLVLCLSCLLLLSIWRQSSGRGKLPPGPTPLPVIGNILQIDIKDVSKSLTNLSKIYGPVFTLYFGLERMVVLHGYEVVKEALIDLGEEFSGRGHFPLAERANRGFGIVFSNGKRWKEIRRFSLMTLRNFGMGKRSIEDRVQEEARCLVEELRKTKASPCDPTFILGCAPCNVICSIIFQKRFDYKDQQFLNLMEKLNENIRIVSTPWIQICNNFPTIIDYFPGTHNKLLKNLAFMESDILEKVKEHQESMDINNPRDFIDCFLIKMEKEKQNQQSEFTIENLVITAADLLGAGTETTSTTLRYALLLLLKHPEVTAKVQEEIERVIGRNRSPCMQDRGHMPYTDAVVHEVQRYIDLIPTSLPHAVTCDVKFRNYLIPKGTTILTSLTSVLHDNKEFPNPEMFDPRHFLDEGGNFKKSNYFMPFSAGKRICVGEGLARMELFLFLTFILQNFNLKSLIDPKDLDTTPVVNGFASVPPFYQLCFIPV
Sequence of Cytochrome P450 3A4 (P08684 whole entry): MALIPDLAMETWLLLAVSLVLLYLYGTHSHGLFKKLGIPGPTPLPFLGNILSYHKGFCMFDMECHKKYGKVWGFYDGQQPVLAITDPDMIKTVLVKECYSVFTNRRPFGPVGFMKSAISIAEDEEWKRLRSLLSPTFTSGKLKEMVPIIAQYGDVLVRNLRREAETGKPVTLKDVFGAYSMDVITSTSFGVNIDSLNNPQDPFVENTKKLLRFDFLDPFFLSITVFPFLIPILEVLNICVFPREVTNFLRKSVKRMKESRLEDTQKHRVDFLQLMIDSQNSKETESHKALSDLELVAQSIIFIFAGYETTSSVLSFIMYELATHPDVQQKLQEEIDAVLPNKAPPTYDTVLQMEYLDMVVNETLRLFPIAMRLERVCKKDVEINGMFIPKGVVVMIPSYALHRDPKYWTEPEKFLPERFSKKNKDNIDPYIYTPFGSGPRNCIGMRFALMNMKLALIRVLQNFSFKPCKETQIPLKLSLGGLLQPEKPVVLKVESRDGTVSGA
Sequence of Cytochrome P450 2C9 (P11712 whole entry): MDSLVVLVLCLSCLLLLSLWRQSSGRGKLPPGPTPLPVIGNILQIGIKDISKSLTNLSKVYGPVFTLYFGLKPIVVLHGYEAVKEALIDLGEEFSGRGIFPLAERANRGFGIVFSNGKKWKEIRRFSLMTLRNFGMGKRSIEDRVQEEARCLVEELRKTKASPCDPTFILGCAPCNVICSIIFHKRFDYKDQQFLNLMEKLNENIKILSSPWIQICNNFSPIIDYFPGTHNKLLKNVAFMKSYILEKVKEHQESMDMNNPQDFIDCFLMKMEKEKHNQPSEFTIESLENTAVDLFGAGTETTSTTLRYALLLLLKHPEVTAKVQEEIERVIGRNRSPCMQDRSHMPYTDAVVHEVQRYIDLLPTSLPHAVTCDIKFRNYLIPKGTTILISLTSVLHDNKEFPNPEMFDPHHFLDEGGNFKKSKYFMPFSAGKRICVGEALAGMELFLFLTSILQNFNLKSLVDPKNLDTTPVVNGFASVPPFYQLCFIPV

## Cc1cccc(-c2nc(C#N)c(NCc3ccco3)o2)c1
[1]
  CC50: 42.9 µM (active)

## CC(C)c1nc(SCc2c(F)cccc2Cl)c2c(=O)n(C)c(=O)n(C)c2n1
[2]
  EC50: > 195 µM (not active)
[1]
  CC50: 7.44 µM (active)

## CCN(CCCl)Cc1ccccc1Br
Cytochrome P450 2D6
  AC50: 12.6 µM (inconclusive)
Cytochrome P450 2C19
  AC50: 39.8 µM (inconclusive)
Cytochrome P450 1A2
  AC50: 15.8 µM (inconclusive)

## COc1ccc(NC(=O)CSc2nc(C)c3c(c2C#N)CCCC3)cc1
Cytochrome P450 2C9
  AC50: 8.91 µM (inconclusive)
Cytochrome P450 2D6
  AC50: 2.24 µM (inconclusive)

## CCC(C)C(NC(=O)OCc1ccccc1)C(=O)OCN1C(=O)c2ccccc2C1=O (stereo not drawn)
Cytochrome P450 2D6
  AC50: 0.631 µM (inconclusive)

## Cc1ccc(-c2c[n+](CC(=O)N3c4ccccc4Sc4ccccc43)c3n2CCC3)cc1
[3]
  EC50: 2.77 µM (active)
[4]
  EC50: > 150 µM (inactive)

## C[N+]1(C)CCc2cc3c(cc2[C@@H]1[C@@H]1OC(=O)c2c1ccc1c2OCO1)OCO3
Cytochrome P450 2D6
  AC50: 31.6 µM (inconclusive)

## CCC1(C)CC(CCNS(=O)(=O)c2ccc(C)cc2)(c2ccc(C)cc2)CCO1 (stereo not drawn)
Cytochrome P450 2D6
  AC50: 28.2 µM (inconclusive)

## CC(=O)c1cccc(Nc2nc(-c3sc(C)nc3C)cs2)c1
[1]
  CC50: > 50 µM (active)

## CCN(Cc1ccccc1)C(c1cccs1)c1nnnn1C1CCCCC1 (stereo not drawn)
INS1
  AC50: 9.27 µM (active)
[5]
  EC50: 3.97 µM (active)
[6]
  EC50: 16.3 µM (active)

## Cc1noc(C)c1-c1ccc2ncnc(N(C)Cc3ccco3)c2c1
Cytochrome P450 2D6
  AC50: 20 µM (inconclusive)

## Oc1ccc(N2CCN(C(S)=NCCc3ccccc3)CC2)cc1
[3]
  EC50: 0.177 µM (active)
[4]
  EC50: > 150 µM (inactive)

## O=C1NCC2=C1C(c1ccc(Br)cc1)Nc1ccccc1N2 (stereo not drawn)
[7]
  EC50: > 260 µM (inactive)
Cytochrome P450 3A4
  AC50: 25.1 µM (inconclusive)
Cytochrome P450 2D6
  AC50: 2.24 µM (inconclusive)

## Cc1cc(Cl)ccc1Oc1cccc(C(=O)/C(C#N)=C/N(C)C)c1
[1]
  CC50: 29.1 µM (active)

## CSc1nnc(C)c(/C=C/Nc2ccc(Cl)cc2)n1
[1]
  CC50: > 50 µM (active)

## Cc1cccc(C)c1NC(=O)/C(C#N)=C/c1cccs1
Cytochrome P450 2D6
  AC50: 6.31 µM (inconclusive)

## COc1ccc(CCNC(=O)c2ccc3c(c2)N(Cc2ccc(C)cc2)CCS3)cc1OC
[1]
  CC50: 35.9 µM (active)

## COc1ccc(C(=O)/C=C/c2ccccc2OC)c(OC(=O)c2ccc([N+](=O)[O-])cc2)c1
[8]
  EC50: 17.3 µM (active)
H4
  EC50: 54.1 µM (inconclusive)
[1]
  CC50: 19.1 µM (active)
[9]
  EC50: 23.8 µM (active)

## Fc1ccc(Cn2nnnc2CN2CCC(n3nnc4cc(C(F)(F)F)ccc43)CC2)cc1
[1]
  CC50: 15 µM (active)

## CN/C(=N/C#N)NCCSC[C@H]1N=CN=C1C
Cytochrome P450 2D6
  AC50: 10 µM (inconclusive)

## Cc1oc2c(cc(NS(=O)(=O)c3cccs3)c3ccccc32)c1C(=O)OC(C)C
[1]
  CC50: 20.3 µM (active)

## CCCC[C@@H]1C[C@H]1C(NC(=O)c1ccco1)c1ccc(C(=O)OC)cc1 (stereo partly drawn)
Cytochrome P450 2D6
  AC50: 25.1 µM (inconclusive)

## O=C(CCCl)N(Cc1nc(O)c2ccccc2n1)Cc1cccs1
[3]
  EC50: > 38 µM (not active)
[4]
  EC50: > 160 µM (inactive)

## COc1cc2c(cc1OC)C(NC(=O)C(F)(F)F)CNC2=O (stereo not drawn)
INS1
  AC50: > 260 µM (inconclusive)

## FC(F)(F)c1cnc(NN=C(S)Nc2ccc(Cl)cc2)c(Cl)c1
INS1
  AC50: 3.44 µM (active)

## C=CCNC(=O)/C(=C\C=C\c1ccccc1)NC(=O)c1ccc(OCCCC)cc1
Cytochrome P450 2D6
  AC50: 4.47 µM (inconclusive)

## O=NN(CCc1ccncc1)c1ccc(OCc2ccccc2)cc1
INS1
  AC50: 6.05 µM (active)

## O=C(Nc1ccc(C(=O)Nc2ccccc2Cl)cc1)c1cccnc1
INS1
  AC50: 1.06 µM (active)

## CCOC(=O)CSc1ccc(C(=O)N2CCN(C)CC2)cc1[N+](=O)[O-]
[3]
  EC50: > 38 µM (not active)
[4]
  EC50: > 160 µM (inactive)

## COc1ccccc1-c1cncnc1NCc1cccnc1
Cytochrome P450 2D6
  AC50: 39.8 µM (inconclusive)

## O=C(COC(=O)c1cn(-c2ccccc2)nc1-c1ccccc1)c1cccc([N+](=O)[O-])c1
INS1
  AC50: 4.4 µM (active)

## CCCCSc1ccc(NC(=O)c2cccnc2)cc1
INS1
  AC50: 8.46 µM (active)

## N#Cc1nc(Cc2ccccc2)oc1NCCc1ccccc1
[8]
  EC50: 4.71 µM (active)
H4
  EC50: 14.5 µM (active)
[1]
  CC50: 28.9 µM (active)
[9]
  EC50: 56.9 µM (active)

## CCn1c(SCc2cccc(C)c2)nnc1-c1ccccc1
Cytochrome P450 3A4
  AC50: 3.16 µM (inconclusive)
Cytochrome P450 2C9
  AC50: 35.5 µM (inconclusive)
Cytochrome P450 2D6
  AC50: 15.8 µM (inconclusive)

## O=C(c1ccco1)N1CCC2(CC1)CCN(c1ccccc1)CC2
Cytochrome P450 2D6
  AC50: 25.1 µM (inconclusive)

## COc1cc(OC)cc(C(=O)NC(=S)NCCc2ccccc2)c1
Cytochrome P450 2D6
  AC50: 10 µM (inconclusive)

## CC(=O)Nc1c(S(=O)(=O)c2ccccc2)c2nc3ccccc3nc2n1Cc1ccccc1
Cytochrome P450 2D6
  AC50: 25.1 µM (inconclusive)

## COc1c(C)cc(Br)cc1C(=O)Nc1ccccc1N1CCN(C(=O)c2ccccc2)CC1
[1]
  CC50: 31.5 µM (active)
[5]
  EC50: 2.52 µM (active)
[6]
  EC50: > 60 µM (not active)

## CN(Cc1ccco1)c1ncncc1-c1ccccc1C(F)(F)F
Cytochrome P450 2D6
  AC50: 20 µM (inconclusive)
Cytochrome P450 1A2
  AC50: 12.6 µM (inconclusive)

## Brc1ccc(-c2ncc3ccccn23)cc1
[1]
  CC50: 29.9 µM (active)

## O=C(c1cccc(F)c1)N1CCC[C@@]2(CCN(C(c3ccccc3)c3ccccc3)C2)C1
Cytochrome P450 2D6
  AC50: 12.6 µM (inconclusive)

## CCOC(=O)C1(Cc2cccc(Cl)c2)CCCN(C(=O)c2ccc(COC)s2)C1 (stereo not drawn)
INS1
  AC50: > 260 µM (inactive)

## C#CCCCCCCCCCCCCCCCC(=O)O
Cytochrome P450 2D6
  AC50: 20 µM (inconclusive)
Cytochrome P450 2C19
  AC50: 25.1 µM (inconclusive)

## C[N+]1(NCC[N@@+]2(C)CCc3ccccc3C2)CCCCC1
Cytochrome P450 2D6
  AC50: 1.58 µM (inconclusive)

## C[C@H](NC(C)(C)C)C(=O)c1cccc(Cl)c1
Cytochrome P450 2D6
  AC50: 31.6 µM (inconclusive) and 6.31 µM (inconclusive)
Cytochrome P450 2C19
  AC50: 15.8 µM (inconclusive) and 3.16 µM (inconclusive)

## C/C(=N\N=C(/N)SC1CC(=O)N(c2cccc(Cl)c2)C1=O)c1cccs1 (stereo not drawn)
[1]
  CC50: 19.4 µM (active)

## CC(=O)/N=c1\c(C#N)cc2c(=O)n3cccc(C)c3nc2n1CCCOC(C)C
[10]
  EC50: > 300 µM (not active)

## O=c1cc(-c2ccccc2)c2ccc(O)cc2o1
[2]
  EC50: 117 µM (active)
[3]
  EC50: 2.12 µM (active)
[4]
  EC50: > 160 µM (inconclusive)

## Cc1ccc(S(=O)(=O)N[C@@H](CCCCN)C(=O)CCl)cc1
Cytochrome P450 2D6
  AC50: 25.1 µM (inconclusive)

## C[C@]12CC[C@@H]3c4ccc(O)cc4CC[C@H]3[C@@H]1CCC2=O [ESTRONE]
[1]
  CC50: 33 µM (active)

## C=C1C[C@H]2[C@@H]3C=C(C)C4=CC(=O)CC[C@]4(C)[C@H]3CC[C@]2(C)[C@@]1(OC(C)=O)C(C)=O [MELENGESTROL ACETATE]
[1]
  CC50: 26.5 µM (active)
